Read-outs that look alike come from different tables or passages of the source.
Assays:
Trypsin = target: T1, Trypsin (Bos taurus, UniProt P00760); assay: anti-trypsin activity (hydrolysis of TAME); format: biochemical; details: read-out: ID50 Trypsin
T1 sequence (P00760 24-246): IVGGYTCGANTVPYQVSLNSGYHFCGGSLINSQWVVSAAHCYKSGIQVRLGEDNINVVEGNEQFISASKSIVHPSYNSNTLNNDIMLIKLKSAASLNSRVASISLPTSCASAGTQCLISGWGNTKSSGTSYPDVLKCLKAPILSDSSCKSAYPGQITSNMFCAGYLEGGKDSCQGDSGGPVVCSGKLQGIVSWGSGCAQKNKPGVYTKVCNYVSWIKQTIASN
Description: (§1) The anti-trypsin, anti-plasmin, anti-kallikrein and anti-thrombin activities were determined according to the method of Muramatsu et al. [M. Muramatsu, T. Onishi, S. Makino, Y. Hayashi and S. Fujii, J. of Biochem., 58, 214 (1965)]. […] The compound No. corresponds to the compound number shown in Examples.

Plasmin = Plasmin (Homo sapiens, UniProt P00747); assay: anti-plasmin activity (hydrolysis of TAME); format: biochemical; details: for IC50: TAME hydrolysis, read-out: ID50 Plasmin; for inhibition at 10 µM: at 1×10^-5 M, figure in parentheses, read-out: percentage inhibition Plasmin
Description: as §1

Kallikrein = assay: anti-kallikrein activity (hydrolysis of TAME); format: biochemical; details: for IC50: TAME hydrolysis, read-out: ID50 Kallikrein; for percentage inhibition Kallikrein: at 1×10^-5 M, figure in parentheses
Description: as §1

Thrombin = Thrombin (Homo sapiens, UniProt P00734); assay: biochemical; details: for IC50: read-out: ID50 Thrombin; for inhibition at 10 µM: at 1×10^-5 M, figure in parentheses, read-out: percentage inhibition Thrombin
C1r = target: T2, C1r (Homo sapiens, UniProt P00736); assay: anti-C1 esterase (C1r) activity (hydrolysis of AAME); format: biochemical; details: for IC50: AAME hydrolysis, read-out: ID50 C1r; for inhibition at 10 µM: at 1×10^-5 M, figure in parentheses, read-out: percent inhibition C1r
T2 sequence (P00736 464-705 limits assumed): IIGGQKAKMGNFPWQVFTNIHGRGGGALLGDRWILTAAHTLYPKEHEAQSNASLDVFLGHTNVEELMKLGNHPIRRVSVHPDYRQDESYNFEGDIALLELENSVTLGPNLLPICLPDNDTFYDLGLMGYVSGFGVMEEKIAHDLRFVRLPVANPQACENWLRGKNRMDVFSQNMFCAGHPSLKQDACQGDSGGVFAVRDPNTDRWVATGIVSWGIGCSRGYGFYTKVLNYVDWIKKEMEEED
T2 sequence (P00736 18-463 limits assumed): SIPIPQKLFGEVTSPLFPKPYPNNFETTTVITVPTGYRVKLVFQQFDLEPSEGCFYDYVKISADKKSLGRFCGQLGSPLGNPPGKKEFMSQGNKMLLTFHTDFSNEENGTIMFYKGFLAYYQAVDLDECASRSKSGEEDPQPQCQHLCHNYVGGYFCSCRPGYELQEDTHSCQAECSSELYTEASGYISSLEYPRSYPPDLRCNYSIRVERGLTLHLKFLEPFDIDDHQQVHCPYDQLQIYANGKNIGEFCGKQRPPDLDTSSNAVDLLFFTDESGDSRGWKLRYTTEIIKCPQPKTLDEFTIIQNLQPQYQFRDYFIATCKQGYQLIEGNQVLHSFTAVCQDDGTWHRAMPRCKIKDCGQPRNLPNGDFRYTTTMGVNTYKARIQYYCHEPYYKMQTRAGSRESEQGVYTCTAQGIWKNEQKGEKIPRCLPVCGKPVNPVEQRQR
Description: (§2) The anti-C1 esterase (C1r, C1s) activity was determined according to the method of Okamura et al. [K. Okamura, M. Muramatsu and B. Fujii, Biochem. Biophys. Acta, 295, 252-257 (1973)]. The inhibition of complement mediated hemolysis was determined according to the method of Baker et al. [B. R. Baker and E. H. Erickson, J. Med. Chem., 12, 408-414 (1969)]. The figures in Table 2 have the following meanings:
C1r: Molar concentration of the test compound which inhibits 50% of the ability of C1r to hydrolyse AAME (acetylarginin methyl ester) (ID50).

C1s = target: T3, C1s (Homo sapiens, UniProt P09871); assay: anti-C1 esterase (C1s) activity (hydrolysis of ATEE); format: biochemical; details: for IC50: ATEE hydrolysis, read-out: ID50 C1s; for inhibition at 10 µM: at 1×10^-5 M, figure in parentheses, read-out: percent inhibition C1s
T3 sequence (P09871 438-688 limits assumed): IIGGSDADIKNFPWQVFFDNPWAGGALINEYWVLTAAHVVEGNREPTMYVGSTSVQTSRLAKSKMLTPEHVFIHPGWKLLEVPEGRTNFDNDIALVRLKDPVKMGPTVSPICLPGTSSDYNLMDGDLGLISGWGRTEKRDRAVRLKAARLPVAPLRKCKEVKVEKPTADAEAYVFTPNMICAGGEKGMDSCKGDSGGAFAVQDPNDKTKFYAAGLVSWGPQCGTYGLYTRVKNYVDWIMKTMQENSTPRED
T3 sequence (P09871 16-437 limits assumed): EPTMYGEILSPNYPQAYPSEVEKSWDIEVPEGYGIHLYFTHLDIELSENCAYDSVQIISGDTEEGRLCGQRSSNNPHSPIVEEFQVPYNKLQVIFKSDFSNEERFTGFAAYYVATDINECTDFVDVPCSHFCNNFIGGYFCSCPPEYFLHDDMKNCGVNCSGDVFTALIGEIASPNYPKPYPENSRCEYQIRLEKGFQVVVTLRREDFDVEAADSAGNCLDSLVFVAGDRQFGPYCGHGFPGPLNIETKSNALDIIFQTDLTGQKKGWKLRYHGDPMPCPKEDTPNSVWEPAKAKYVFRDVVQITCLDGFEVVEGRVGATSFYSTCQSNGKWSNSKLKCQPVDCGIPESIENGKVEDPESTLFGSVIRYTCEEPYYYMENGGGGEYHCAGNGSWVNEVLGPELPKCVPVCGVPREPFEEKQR
Description: as §2
C1s: Molar concentration of the test compound which inhibits 50% of the ability of C1s to hydrolyse ATEE (acetyltyrosin ethyl ester) (ID50).

[1] = tested on: complement mediated hemolysis; assay: inhibition of complement mediated hemolysis; format: cell-based
Description: The complement mediated hemolysis is widely used as a means to determine the titration of complement. The principle of this method is based on the fact that hemolysis is caused by the activation of complement, when the latter is added to a complex (immune complex) of erythrocytes and the antibody thereof. The degree of hemolysis varies in proportion to the amount of complement added. Therefore, when a known amount of complement admixed with a C1 esterase inhibitor is used, the hemolysis must be suppressed in proportion to the inhibitory activity.
as §2
Inhibition of complement mediated hemolysis (%): The inhibitory activity is shown in terms of percent inhibition of the compound at varied concentrations: […]

Sequence of Plasmin (P00747 581-810 limits assumed, species assumed): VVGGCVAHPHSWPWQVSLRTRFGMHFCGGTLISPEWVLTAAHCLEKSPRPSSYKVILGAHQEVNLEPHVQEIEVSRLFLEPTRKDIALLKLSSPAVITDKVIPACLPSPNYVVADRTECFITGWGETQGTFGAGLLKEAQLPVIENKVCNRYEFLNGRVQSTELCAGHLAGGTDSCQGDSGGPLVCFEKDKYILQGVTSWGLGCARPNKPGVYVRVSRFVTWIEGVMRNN
Sequence of Plasmin (P00747 97-580 limits assumed, species assumed): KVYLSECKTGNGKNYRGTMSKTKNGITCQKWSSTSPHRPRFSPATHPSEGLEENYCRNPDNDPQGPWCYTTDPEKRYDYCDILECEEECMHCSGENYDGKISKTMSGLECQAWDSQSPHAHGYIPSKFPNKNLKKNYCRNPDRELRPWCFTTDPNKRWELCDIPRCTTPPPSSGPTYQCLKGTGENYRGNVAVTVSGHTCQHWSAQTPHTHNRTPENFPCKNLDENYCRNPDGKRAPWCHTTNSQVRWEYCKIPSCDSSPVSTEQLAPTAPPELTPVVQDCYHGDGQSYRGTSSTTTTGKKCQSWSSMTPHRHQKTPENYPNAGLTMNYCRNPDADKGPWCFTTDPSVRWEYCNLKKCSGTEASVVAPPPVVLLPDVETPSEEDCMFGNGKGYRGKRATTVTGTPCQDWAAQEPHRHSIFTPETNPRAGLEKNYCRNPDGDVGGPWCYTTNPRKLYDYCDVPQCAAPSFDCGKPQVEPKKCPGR

Compound	IC50 (Trypsin)	IC50 (Plasmin)	IC50 (Kallikrein)	IC50 (C1r)	IC50 (C1s)	percentage inhibition Kallikrein (Kallikrein)	inhibition at 10 µM (Thrombin)	inhibition at 10 µM (C1r)	inhibition at 10 µM (C1s)	other results
COc1ccc2c(c1)c(CC(=O)Oc1ccc3cc(C(=N)N)ccc3c1)c(C)n2C(=O)c1ccc(Cl)cc1 [compound 35]	1 nM	100 nM	10000 nM	400 nM	800 nM	–	–	–	–	IC50 (Thrombin; TAME hydrolysis): 90 nM
N=C(N)c1ccc2cc(OC(=O)C=Cc3c[nH]c4ccccc34)ccc2c1 [compound 38]	9000 nM	800 nM	–	–	600 nM	17%	11%	42%	–	–
N=C(N)c1ccc2cc(OC(=O)c3ccc(Cn4ccnc4)cc3)ccc2c1 [compound 42]	2000 nM	2000 nM	5000 nM	–	–	–	13%	–	–	–
N=C(N)c1ccc2cc(OC(=O)c3ccc4[nH]cnc4c3)ccc2c1 [compound 43]	100 nM	–	–	300 nM	500 nM	41%	46%	–	–	inhibition at 10 µM (Plasmin): 31%
N=C(N)c1ccc2cc(OC(=O)C=Cc3cccnc3)ccc2c1 [compound 50]	6000 nM	4000 nM	–	5000 nM	–	NE (the percentage inhibition is less than 10%)	14%	–	18%	–
N=C(N)c1ccc2cc(OC(=O)c3ccc4ccccc4n3)ccc2c1 [compound 52]	–	–	–	–	–	–	–	29%	< 10%	Inhibition of complement mediated hemolysis ([1]; 1 × 10^-4): 100%; Inhibition of complement mediated hemolysis ([1]; 1 × 10^-5): 97%; Inhibition of complement mediated hemolysis ([1]; 1 × 10^-6): 99%; Inhibition of complement mediated hemolysis ([1]; 1 × 10^-7): 97%
N=C(N)c1ccc2cc(OC(=O)C3CCN(C(=O)OCc4ccccc4)CC3)ccc2c1 [compound 55]	60 nM	3000 nM	2000 nM	3000 nM	400 nM	–	41%	–	–	–
CN1c2ccccc2Sc2ccc(CC(=O)Oc3ccc4cc(C(=N)N)ccc4c3)cc21 [compound 61]	3000 nM	–	–	2000 nM	–	17%	–	–	16%	inhibition at 10 µM (Plasmin): 31%; IC50 (Thrombin): 3000 nM
N=C(N)c1ccc2cc(OC(=O)C3CCNCC3)ccc2c1 [compound 64]	–	–	–	–	7000 nM	–	–	45%	–	–
